Source: ChEMBL document CHEMBL6153028, “Understanding the synergistic sensitization of natural products and antibiotics: An effective strategy to combat MRSA” (2025)

Legend:
Type in all cases: functional
Staphylococcus aureus [1] = assay: Synergistic antimicrobial activity against methicillin resistant Staphylococcus aureus 43300 assessed as fractional inhibitory concentration index incubated for 24 hrs in presence of norfloxacin by checkerboard assay
Staphylococcus aureus [2] = assay: Synergistic antimicrobial activity against methicillin resistant Staphylococcus aureus assessed as fractional inhibitory concentration index incubated for 24 hrs in presence of Oxacillin by checkerboard assay
Staphylococcus aureus [3] = assay: Synergistic antimicrobial activity against methicillin-resistant Staphylococcus aureus assessed as fractional inhibitory concentration index in presence of gentamicin by checkerboard assay
Staphylococcus aureus [4] = assay: Synergistic antibacterial activity against Staphylococcus aureus assessed as fractional inhibitory concentration index incubated for 24 hrs in presence of ampicillin by checkerboard assay
Staphylococcus aureus [5] = assay: Synergistic antimicrobial activity against methicillin resistant Staphylococcus aureus assessed as fractional inhibitory concentration index incubated for 24 hrs in presence of Norfloxacin by checkerboard assay
Staphylococcus aureus [6] = assay: Synergistic antimicrobial activity against methicillin resistant Staphylococcus aureus 43300 assessed as fractional inhibitory concentration index incubated for 24 hrs in presence of Penicillin by checkerboard assay
Staphylococcus aureus [7] = assay: Synergistic antimicrobial activity against methicillin resistant Staphylococcus aureus 43300 assessed as fractional inhibitory concentration index incubated for 24 hrs in presence of Vancomycin by checkerboard assay
Staphylococcus aureus [8] = assay: Synergistic antibacterial activity against methicillin-resistant Staphylococcus aureus 4806 assessed as fractional inhibitory concentration index incubated for 24 hrs in presence of ampicillin by checkerboard assay
Staphylococcus aureus [9] = assay: Synergistic antibacterial activity against methicillin-resistant Staphylococcus aureus assessed as fractional inhibitory concentration index incubated for 24 hrs in presence of ampicillin by checkerboard assay
Staphylococcus aureus [10] = assay: Synergistic antibacterial activity against methicillin-resistant Staphylococcus aureus assessed as fractional inhibitory concentration index incubated for 24 hrs in presence of cefazolin by checkerboard assay
Staphylococcus aureus [11] = assay: Synergistic antibacterial activity against methicillin resistant Staphylococcus aureus assessed as fractional inhibitory concentration index in presence of oxacillin incubated for 24 hrs by checkerboard assay
Staphylococcus aureus [12] = assay: Synergistic antibacterial activity against methicillin resistant Staphylococcus aureus assessed as fractional inhibitory concentration index in presence of kanamycin incubated for 24 hrs by checkerboard assay
Staphylococcus aureus [13] = assay: Synergistic antibacterial activity against methicillin-resistant Staphylococcus aureus assessed as fractional inhibitory concentration index in presence of azithromycin
Staphylococcus aureus [14] = assay: Synergistic antibacterial activity against methicillin resistant Staphylococcus aureus assessed as fractional inhibitory concentration index incubated for 24 hrs in presence of levofloxacin by broth microdilution checkboard assay
Staphylococcus aureus [15] = assay: Synergistic antibacterial activity against methicillin-resistant Staphylococcus aureus assessed as fractional inhibitory concentration index incubated for 24 hrs in presence of fusidic acid by checkerboard assay
Staphylococcus aureus [16] = assay: Synergistic antimicrobial activity against methicillin-resistant Staphylococcus aureus assessed as fractional inhibitory concentration index in presence of vancomycin by checkerboard assay
Staphylococcus aureus [17] = assay: Synergistic antimicrobial activity against methicillin-resistant Staphylococcus aureus assessed as fractional inhibitory concentration index in presence of gentamicin incubated for 24 hrs by checkerboard assay

SMILES: COc1cc2c(cc1O)CC[n+]1cc3c(OC)c(OC)ccc3cc1-2.[I-]
- fractional inhibitory concentration index (FICI) (Staphylococcus aureus [1]): 0.375

SMILES: COc1cc(C)c2c(c1C)OC(=O)c1c(C)c(Cl)c(O)c(C=O)c1O2
- fractional inhibitory concentration index (FICI) (Staphylococcus aureus [2]): 0.312
- fractional inhibitory concentration index (FICI) (Staphylococcus aureus [3]): 0.25

SMILES: COc1ccc2c(c1OC)C(CC(C)=O)N(C)c1c-2ccc2cc3c(cc12)OCO3 (stereo not drawn)
- fractional inhibitory concentration index (FICI) (Staphylococcus aureus [4]): 0.5

SMILES: CC1=CCC[C@@H]2[C@@](C)(C[C@H](O)C3=CC(=O)OC3O)[C@H](C)CC[C@@]12C (stereo partly drawn)
- fractional inhibitory concentration index (FICI) (Staphylococcus aureus [2]): 0.125

SMILES: C[C@@H]1O[C@@H](O[C@H]2[C@H](O[C@H]3CC[C@]4(C)[C@H]5CC=C6[C@@H]7CC(C)(C)CC[C@]7(C(=O)O)CC[C@@]6(C)[C@]5(C)CC[C@H]4C3(C)C)OC[C@H](O)[C@@H]2O)[C@H](O)[C@H](O)[C@H]1O
- fractional inhibitory concentration index (FICI) (Staphylococcus aureus [2]): 0.28

SMILES: O=C(OCC1O[C@H](OC(=O)c2cc(O)c(O)c(O)c2)[C@@H](O)[C@H](OC(=O)c2cc(O)c(O)c(O)c2)[C@H]1O)c1cc(O)c(O)c(O)c1 (stereo partly drawn)
- fractional inhibitory concentration index (FICI) (Staphylococcus aureus [5]): 0.31
- fractional inhibitory concentration index (FICI) (Staphylococcus aureus [2]): <0.5

SMILES: C[C@H]1C2CCC3[C@@H]4CC=C5CC(N(C)C)CC[C@]5(C)[C@H]4CC[C@@]32CN1C=O (stereo partly drawn)
- fractional inhibitory concentration index (FICI) (Staphylococcus aureus [6]): 0.116
- fractional inhibitory concentration index (FICI) (Staphylococcus aureus [7]): 0.502

SMILES: CC1=C(C)[C@H]2C3=CC[C@@H]4[C@@]5(C)CC[C@H](O)C(C)(C)[C@@H]5CC[C@@]4(C)[C@]3(C)CC[C@@]2(C(=O)O)CC1
- fractional inhibitory concentration index (FICI) (Staphylococcus aureus [4]): 0.5
- fractional inhibitory concentration index (FICI) (Staphylococcus aureus [2]): 0.38

SMILES: COc1c(O)ccc2c1C(CC(C)=O)N(C)c1c-2ccc2cc3c(cc12)OCO3 (stereo not drawn)
- fractional inhibitory concentration index (FICI) (Staphylococcus aureus [8]): 0.375
- fractional inhibitory concentration index (FICI) (Staphylococcus aureus [9]): 0.5
- fractional inhibitory concentration index (FICI) (Staphylococcus aureus [4]): 0.5

SMILES: COc1ccc2cc1Oc1ccc(cc1)C[C@H]1c3cc(c(OC)cc3CCN1C)Oc1c(O)c(OC)cc3c1[C@H]2N(C)CC3
- fractional inhibitory concentration index (FICI) (Staphylococcus aureus [10]): 0.25

SMILES: COc1ccc2cc1Oc1ccc(cc1)C[C@H]1c3cc(c(OC)cc3CCN1C)Oc1c(OC)c(OC)cc3c1[C@H]2N(C)CC3
- fractional inhibitory concentration index (FICI) (Staphylococcus aureus [10]): 0.188

SMILES: CNC1CC[C@@]2(C)C(=CC[C@H]3C4CCC5[C@H](C)NC[C@@]54CC[C@@H]32)C1 (stereo partly drawn)
- FIC (Staphylococcus aureus [6]): 0.116
- fractional inhibitory concentration index (FICI) (Staphylococcus aureus [7]): 0.116

SMILES: CC(C)=CCc1c(O)ccc(-c2oc3cc(O)cc(O)c3c(=O)c2CC=C(C)C)c1O
- fractional inhibitory concentration index (FICI) (Staphylococcus aureus [11]): 0.375
- fractional inhibitory concentration index (FICI) (Staphylococcus aureus [12]): 0.5

SMILES: C[C@H]1[C@H](OC(=O)CCC(=O)O)O[C@@H]2O[C@@]3(C)CC[C@H]4[C@H](C)CC[C@@H]1[C@@]24OO3 [ARTESUNATE]
- fractional inhibitory concentration index (FICI) (Staphylococcus aureus [2]): <0.5

SMILES: COc1ccc2cc3[n+](cc2c1OC)CCc1cc2c(cc1-3)OCO2.[Cl-] [BERBERINE CHLORIDE]
- fractional inhibitory concentration index (FICI) (Staphylococcus aureus [13]): 0.188
- fractional inhibitory concentration index (FICI) (Staphylococcus aureus [14]): 0.375
- fractional inhibitory concentration index (FICI) (Staphylococcus aureus [15]): 0.19

SMILES: C=C(C)[C@@H]1CC[C@]2(C=O)CC[C@]3(C)[C@H](CC[C@@H]4[C@@]5(C)CC[C@H](O)C(C)(C)[C@@H]5CC[C@]43C)[C@@H]12 [BETULINALDEHYDE]
- fractional inhibitory concentration index (FICI) (Staphylococcus aureus [16]): 0.5

SMILES: C=C(C)[C@@H]1CC[C@]2(C(=O)O)CC[C@]3(C)[C@H](CC[C@@H]4[C@@]5(C)CC[C@H](O)C(C)(C)[C@@H]5CC[C@]43C)[C@@H]12 [BETULINIC ACID]
- fractional inhibitory concentration index (FICI) (Staphylococcus aureus [16]): 0.5

SMILES: CC(C)c1cc2c(c(O)c1O)[C@@]1(C(=O)O)CCCC(C)(C)[C@@H]1CC2 [CARNOSIC ACID]
- fractional inhibitory concentration index (FICI) (Staphylococcus aureus [17]): 0.5
